According to patent US10053485B2, “Cytotoxic agents that preferentially target leukemia inhibitory factor (LIF) for the treatment of malignancies and as new contraceptive agents” (Evestra, Inc., priority 2015, dated 2018):

Experiments:
[1] = tested on: IGROV-1 (Ovarian cancer cells); test: Short term (72 h) cytotoxicity assay; type: cell-based; settings: Homo sapiens; IGROV-1, 72 h cytotoxicity
OVCAR-3 = test: NCI-60 screen, Ovarian Cancer panel; type: cell-based; settings: Homo sapiens, OVCAR-3, 48 h
Description: EC 330 was also tested using the NCI-60 Screening Methodology. The human tumor cell lines of the cancer screening panel are grown in RPMI 1640 medium containing 5% fetal bovine serum and 2 mM L-glutamine. For a typical screening experiment, cells are inoculated into 96 well microtiter plates in 100 μL at plating densities ranging from 5,000 to 40,000 cells/well depending on the doubling time of individual cell lines. After cell inoculation, the microtiter plates are incubated at 37° C., 5% CO2, 95% air and 100% relative humidity for 24 h prior to addition of experimental drugs. […]
Following drug addition, the plates are incubated for an additional 48 h at 37° C., 5% CO2, 95% air, and 100% relative humidity. […] Bound stain is subsequently solubilized with 10 mM trizma base, and the absorbance is read on an automated plate reader at a wavelength of 515 nm. […] Using the seven absorbance measurements [time zero, (Tz), control growth, (C), and test growth in the presence of drug at the five concentration levels (Ti)], the percentage growth is calculated at each of the drug concentrations levels. Percentage growth inhibition is calculated as: [(Ti−Tz)/(C−Tz)]×100 for concentrations for which Ti>/=Tz [(Ti−Tz)/Tz]×100 for concentrations for which Ti<Tz.
Three dose response parameters are calculated for each experimental agent. […]

NCI-H460 = test: NCI-60 screen, Non-Small Cell Lung Cancer panel; type: cell-based; settings: Homo sapiens, NCI-H460, 48 h
A549/ATCC = test: NCI-60 screen, Non-Small Cell Lung Cancer panel; type: cell-based; settings: Homo sapiens, A549, 48 h
[2] = tested on: Ishikawa (Endometrial Cancer); test: Short term (72 h) cytotoxicity assay; type: cell-based; settings: Homo sapiens
U87-MU (Glioma cells) = test: Short term (72 h) cytotoxicity assay; type: cell-based; settings: Glioma cell
UO-31 = test: NCI-60 screen, Renal Cancer panel; type: cell-based; settings: Homo sapiens, UO-31, 48 h
MDA-MB-435 = test: NCI-60 screen, Melanoma panel; type: cell-based; settings: Homo sapiens, MDA-MB-435, 48 h
SK-OV-3 = test: NCI-60 screen, Ovarian Cancer panel; type: cell-based; settings: Homo sapiens, SK-OV-3, 48 h
HT29 = test: NCI-60 screen, Colon Cancer panel; type: cell-based; settings: Homo sapiens, HT-29, 48 h
[3] = tested on: IGROV1 (Ovarian) Xenograft; test: Tumor xenograft study, IGROV1; type: in vivo, mice
Description: Uniform suspensions of human breast cancer MDA-MB-231 and human ovarian cancer IGROV1 cells (2×10^6) in 100 μL (0.02 carboxymethyl cellulose in phosphate buffered saline) were injected subcutaneously into the right and left flanks of 4- to 5-week-old female athymic nude mice (Charles River Laboratories). After 10 days, when the tumor […] reaches 100 mm^3, the mice were randomly allocated to 3 groups of each containing 6 animals. […] All drug was suspended in PBS followed by sonication (15 seconds with an intermittent interval of 5 seconds) for 1 minute. Tumors were allowed to reach palpability before drug intervention. Tumor size was measured every 3 days using digital Vernier Calipers and tumor volume was calculated using the ellipsoid formula [D×(d2)]/2, where D is the large diameter of the tumor and d represents the small diameter. On day 31, the mice were euthanized and tumors were harvested for protein and gene expression studies. […] FIG. 6B depicts a graph of tumor volume vs. time for the administration of EC300 at 2.5 mg/kg twice weekly in the MDA-MB-231 (TNBC) Xenograft. […] FIG. 7 depicts a graph of tumor volume vs. time for the administration of EC300 at 5 mg/kg 5 days per week in the IGROV1 (Ovarian) Xenograft. […] STAT3 phosphorylation is reduced in tumors that underwent treatment compared to control which is an indication of LIF downstream target.

[4] = read-out: LC50 (log10LC50) (converted)
[5] = read-out: GI50 (log10GI50) (converted)

## C#CC(F)(F)[C@]1(O)CCC2C3CCC4=CC(=O)CCC4=C3C(c3ccc(C4CC4)cc3)C[C@@]21C (stereo partly drawn) [EC330, 17α-(1,1-difluoro-2-propyn-1-yl)-17β-hydroxy-11β-[4-p-(cyclopropyl)phenyl]estra-4,9-dien-3-one]
[1]
  IC50: 35 nM
OVCAR-3; [4]
  CC50: 933 nM
OVCAR-3; SRB, read-out: GI50 (log10GI50) (converted)
  GI50: 12.9 nM
NCI-H460; [5]
  GI50: 2690 nM
NCI-H460; [4]
  CC50: > 100 µM
A549/ATCC; [5]
  GI50: 2450 nM
A549/ATCC; [4]
  CC50: > 100 µM
[2]
  IC50: 5 nM
U87-MU (Glioma cells)
  IC50: 25 nM
UO-31; [5]
  GI50: < 10 nM
UO-31; [4]
  CC50: < 10 nM
MDA-MB-435; [5]
  GI50: 1860 nM
MDA-MB-435; [4]
  CC50: > 100 µM
SK-OV-3; [5]
  GI50: 117 nM
SK-OV-3; [4]
  CC50: 661 nM
HT29; [5]
  GI50: < 10 nM
HT29; [4]
  CC50: 692 nM
[3]; 5 mg/kg (5 days per week), 4 weeks, intraperitoneally
  antitumor activity: potent antitumor activity
[3]; IGR-OV1 xenograft tumors, FIG. 8
  apoptosis in xenograft tumors: induced apoptosis dose dependently
[3]; ovarian cancer model
  tumor growth: significantly reduced
[3]; treated vs. control
  STAT3 phosphorylation in tumors: reduced
